Source: US11951094B2, “TLR2 modulator compounds, pharmaceutical compositions and uses thereof” (Axial Therapeutics, Inc., priority 2020, dated 2024)

Target: TLR2 (Homo sapiens, UniProt O60603)
Test: TLR2 agonist screening assay, HEK-Blue TLR2 reporter cell line (NF-kB-driven SEAP, absorbance at 600 nm)
Assay type: cell-based
Set-up: host or cells: HEK-293 (HEK-Blue TLR2 reporter cell line)
Details: HEK-Blue TLR2 reporter cells, agonist mode
How it was run: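 TLR2 engagement is scored through NF-kB-induced secreted alkaline phosphatase in HEK-293 cells, detected by substrate colour change at 600 nm after overnight compound treatment at 1% final DMSO. Potency is expressed as EC50.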

TLR2, sequence (O60603 21-784): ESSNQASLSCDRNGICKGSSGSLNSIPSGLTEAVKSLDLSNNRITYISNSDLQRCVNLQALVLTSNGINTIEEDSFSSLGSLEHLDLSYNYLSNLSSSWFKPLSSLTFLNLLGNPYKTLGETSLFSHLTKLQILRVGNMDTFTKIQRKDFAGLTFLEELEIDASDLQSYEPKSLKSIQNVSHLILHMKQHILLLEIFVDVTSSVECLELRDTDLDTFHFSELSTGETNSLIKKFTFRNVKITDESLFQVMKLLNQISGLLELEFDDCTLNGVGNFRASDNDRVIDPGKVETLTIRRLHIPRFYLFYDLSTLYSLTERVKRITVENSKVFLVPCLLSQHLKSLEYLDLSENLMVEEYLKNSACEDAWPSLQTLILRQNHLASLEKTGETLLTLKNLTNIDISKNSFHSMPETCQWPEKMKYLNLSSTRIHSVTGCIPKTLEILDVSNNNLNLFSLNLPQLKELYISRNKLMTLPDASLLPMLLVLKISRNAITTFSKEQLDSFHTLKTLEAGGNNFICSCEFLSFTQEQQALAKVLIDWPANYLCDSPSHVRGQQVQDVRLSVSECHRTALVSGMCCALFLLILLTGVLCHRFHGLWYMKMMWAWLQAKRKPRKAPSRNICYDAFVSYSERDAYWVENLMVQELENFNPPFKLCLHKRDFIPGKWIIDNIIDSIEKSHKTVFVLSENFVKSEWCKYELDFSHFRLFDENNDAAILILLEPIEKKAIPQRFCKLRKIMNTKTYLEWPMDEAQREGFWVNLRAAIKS

EC50 (average of all runs (Table 4)) [nM]	EC50 (average of all runs (Table 3)) [nM]	Structure (SMILES)
0.1 to 50	–	CCCCCCCCCCCCCCC(=O)N[C@H]1CN(C(=O)c2ccc(C(=O)N3C[C@@H](C(=O)N[C@H]4C[C@@H]4c4ccccc4)[C@H](C(=O)N[C@H]4C[C@@H]4c4ccccc4)C3)cc2)C[C@H]1OC [Compound 236, (3S,4S)-1-(4-((3R,4S)-3-methoxy-4-pentadecanamidopyrrolidine-1-carbonyl)benzoyl)-N3,N4-bis ((1S,2R)-2-phenylcyclopropyl) pyrrolidine-3,4-dicarboxamide]
> 1000	–	CCCCCCNC(=O)[C@@H](CCNC(=O)CCCCCC)NC(=O)c1ccc(C(=O)N2C[C@@H](C(=O)N[C@H]3C[C@@H]3c3ccccc3)[C@H](C(=O)N[C@H]3C[C@@H]3c3ccccc3)C2)cc1 [Compound 119, (3S,4S)-1-(4-(((R)-4-heptanamido-1-(hexylamino)-1-oxobutan-2-yl)carbamoyl)benzoyl)-N3,N4-bis((1S,2R)-2-phenylcyclopropyl)pyrrolidine-3,4-dicarboxamide]
> 1000	–	CCCCCCCCCCCCCNC(=O)N[C@H]1CN(c2nnc(-c3ccc(C(=O)N4C[C@@H](C(=O)N[C@H]5C[C@@H]5c5ccccc5)[C@H](C(=O)N[C@H]5C[C@@H]5c5ccccc5)C4)cc3)[nH]2)C[C@@H]1OC [Compound 237, (3S,4S)-1-(4-(5-((3S,4S)-3-methoxy-4-(3-tridecylureido)pyrrolidin-1-yl)-4H-1,2,4-triazol-3-yl)benzoyl)-N3,N4-bis((1S,2R)-2-phenylcyclopropyl)pyrrolidine-3,4-dicarboxamide]
> 1000	–	CCCCCCCC(=O)N1CCCN(C(=O)c2ccc(C(=O)N3C[C@@H](C(=O)N[C@H]4C[C@@H]4c4ccccc4)[C@H](C(=O)N[C@H]4C[C@@H]4c4ccccc4)C3)cc2)C[C@H]1C(=O)NCCCCCC (single isomer, unassigned) [Compound 145]
–	> 1000	CCCCCCCCCCCCCCC(=O)NC(C)(C)CNC(=O)c1ccc(C(=O)N2C[C@@H](C(=O)N[C@H]3C[C@@H]3c3ccccc3)[C@H](C(=O)N[C@H]3C[C@@H]3c3ccccc3)C2)cc1 [Compound 012]
351 to 1000	–	CCCCCCCCCCCCCCC(=O)N[C@@H]1CN(C(=O)c2ccc(C(=O)N3C[C@@H](C(=O)N[C@H]4C[C@@H]4c4ccccc4)[C@H](C(=O)N[C@H]4C[C@@H]4c4ccccc4)C3)cc2)C[C@H]1OC [Compound 154, (3S,4S)-1-(4-((3R,4R)-3-methoxy-4-pentadecanamidopyrrolidine-1-carbonyl)benzoyl)-N3,N4-bis((1S,2R)-2-phenylcyclopropyl) pyrrolidine-3,4-dicarboxamide]
> 1000	–	CCCCCCCCCCCCCCNC(=O)C1CCN(Cc2ccc(C(=O)N3C[C@@H](C(=O)N[C@H]4C[C@@H]4c4ccccc4)[C@H](C(=O)N[C@H]4C[C@@H]4c4ccccc4)C3)cc2)C1=O (stereo partly drawn) [Compound 142, (3S,4S)-1-(4-((2-oxo-3-(tetradecylcarbamoyl)pyrrolidin-1-yl)methyl)benzoyl)-N3,N4-bis((1S,2R)-2-phenylcyclopropyl)pyrrolidine-3,4-dicarboxamide]
351 to 1000	–	CCCCCCCCCCCCCCNC(=O)[C@@H]1CN(C(=O)c2ccc(C(=O)N3C[C@@H](C(=O)N[C@H]4C[C@@H]4c4ccccc4)[C@H](C(=O)N[C@H]4C[C@@H]4c4ccccc4)C3)cc2)C[C@@H]1OC (single isomer, unassigned) [Compound 107, (3S,4S)-1-(4-((3R*,4R*)-3-methoxy-4-(tetradecylcarbamoyl)pyrrolidine-1-carbonyl)benzoyl)-N3,N4-bis((1S,2R)-2-phenylcyclopropyl)pyrrolidine-3,4-dicarboxamide]
51 to 350	–	CCCCCCCCN1C(=O)N(Cc2ccc(C(=O)N3C[C@@H](C(=O)N[C@H]4C[C@@H]4c4ccccc4)[C@H](C(=O)N[C@H]4C[C@@H]4c4ccccc4)C3)cc2)C[C@@H]1C(=O)NCCCCCC [Compound 168, (3S,4S)-1-(4-(((R)-4-(hexylcarbamoyl)-3-octyl-2-oxoimidazolidin-1-yl)methyl)benzoyl)-N3,N4-bis((1S,2R)-2-phenylcyclopropyl)pyrrolidine-3,4-dicarboxamide]
–	51 to 350	CCCCCCNC(=O)[C@@H]1CN(C(=O)c2ccc(C(=O)N3C[C@@H](C(=O)N[C@H]4C[C@@H]4c4ccccc4)[C@H](C(=O)N[C@H]4C[C@@H]4c4ccccc4)C3)cc2)C[C@H]1O (relative stereo) [Compound 033, (3S,4S)-1-(4-((3R*,4S*)-3-(hexylcarbamoyl)-4-hydroxypyrrolidine-1-carbonyl)benzoyl)-N3,N4-bis((1S,2R)-2-phenylcyclopropyl)pyrrolidine-3,4-dicarboxamide]
0.1 to 50	–	CCCCCCCC(=O)N[C@@H](CNC(=O)c1ccc(C(=O)N2C[C@@H](C(=O)N[C@H]3C[C@@H]3c3ccccc3)[C@H](C(=O)N[C@H]3C[C@@H]3c3ccccc3)C2)cc1)C(=O)NCCCCCC [Compound 173, (3S,4S)-1-(4-(((S)-3-(hexylamino)-2-octanamido-3-oxopropyl)carbamoyl)benzoyl)-N3,N4-bis((1S,2R)-2-phenylcyclopropyl)pyrrolidine-3,4-dicarboxamide]
0.1 to 50	–	CCCCCCCCCCCCNC(=O)N[C@H]1CN(C(c2ccc(C(=O)N3C[C@@H](C(=O)N[C@H]4C[C@@H]4c4ccccc4)[C@H](C(=O)N[C@H]4C[C@@H]4c4ccccc4)C3)cc2)C(F)(F)F)C[C@@H]1OC (single isomer, unassigned) [Compound 232, (3S,4S)-1-(4-((R*)-1-((3S,4S)-3-(3-dodecylureido)-4-methoxypyrrolidin-1-yl)-2,2,2-trifluoroethyl)benzoyl)-N3,N4-bis((1S,2R)-2-phenylcyclopropyl)pyrrolidine-3,4-dicarboxamide]
–	351 to 1000	CCCCCCCC(=O)N1CCN(C(=O)c2ccc(C(=O)N3C[C@@H](C(=O)N[C@H]4C[C@@H]4c4ccccc4)[C@H](C(=O)N[C@H]4C[C@@H]4c4ccccc4)C3)cc2)CC1C(=O)NCC (stereo partly drawn) [Compound 048, (3S,4S)-1-(4-(3-(ethylcarbamoyl)-4-octanoylpiperazine-1-carbonyl)benzoyl)-N3,N4-bis ((1S,2R)-2-phenylcyclopropyl) pyrrolidine-3,4-dicarboxamide]
> 1000	–	CCCCCCCCCCCCCNC(=O)[C@@H]1CN(C(=O)c2ccc(C(=O)N3C[C@@H](C(=O)N[C@H]4C[C@@H]4c4ccccc4)[C@H](C(=O)N[C@H]4C[C@@H]4c4ccccc4)C3)cc2)CCN1C(C)=O [Compound 254, (3S,4S)-1-(4-((S)-4-acetyl-3-(tridecylcarbamoyl)piperazine-1-carbonyl)benzoyl)-N3,N4-bis((1S,2R)-2-phenylcyclopropyl)pyrrolidine-3,4-dicarboxamide]
351 to 1000	–	CCCCCCCCCCCCCCC(=O)N[C@@H]1CN(C(=O)c2ccc(C(=O)N3C[C@@H](C(=O)N[C@H]4C[C@@H]4c4ccccc4)[C@H](C(=O)N[C@H]4C[C@@H]4c4ccccc4)C3)cc2)C[C@H]1O [Compound 157, (3S,4S)-1-(4-((3R,4R)-3-hydroxy-4-pentadecanamidopyrrolidine-1-carbonyl)benzoyl)-N3,N4-bis ((1S,2R)-2-phenylcyclopropyl) pyrrolidine-3,4-dicarboxamide]
51 to 350	–	CCCCCCCCCCCCCCNC(=O)[C@H]1CN(C(=O)c2ccc(C(=O)N3C[C@@H](C(=O)N[C@H]4C[C@@H]4c4ccccc4)[C@H](C(=O)N[C@H]4C[C@@H]4c4ccccc4)C3)cc2)C[C@@H]1O (single isomer, unassigned) [Compound 106, (3S,4S)-1-(4-((3S*,4R*)-3-hydroxy-4-(tetradecylcarbamoyl)pyrrolidine-1-carbonyl)benzoyl)-N3,N4-bis((1S,2R)-2-phenylcyclopropyl)pyrrolidine-3,4-dicarboxamide]
> 1000	–	CCCCCCCCCCCCCCCN[C@@H]1CCN(C(=O)c2ccc(C(=O)N3C[C@@H](C(=O)N[C@H]4C[C@@H]4c4ccccc4)[C@H](C(=O)N[C@H]4C[C@@H]4c4ccccc4)C3)cc2)C1 [Compound 082, (3S,4S)-1-(4-((R)-3-(pentadecylamino)pyrrolidine-1-carbonyl)benzoyl)-N3,N4-bis((1S,2R)-2-phenylcyclopropyl)pyrrolidine-3,4-dicarboxamide]
> 1000	–	CCCCCCCCCCCCCCNC(=O)C[C@@H]1CCCN1C(=O)c1ccc(C(=O)N2C[C@@H](C(=O)N[C@H]3C[C@@H]3c3ccccc3)[C@H](C(=O)N[C@H]3C[C@@H]3c3ccccc3)C2)cc1 [Compound 135, (3S,4S)-1-(4-((S)-2-(2-oxo-2-(tetradecylamino)ethyl)pyrrolidine-1-carbonyl)benzoyl)-N3,N4-bis((1S,2R)-2-phenylcyclopropyl) pyrrolidine-3,4-dicarboxamide]
0.1 to 50	–	CCCCCCCCCC(=O)N[C@@H](COC(=O)Nc1ccc(C(=O)N2C[C@@H](C(=O)N[C@H]3C[C@@H]3c3ccccc3)[C@H](C(=O)N[C@H]3C[C@@H]3c3ccccc3)C2)cc1)C(=O)NCCCCCC [Compound 239, (S)-2-decanamido-3-(hexylamino)-3-oxopropyl (4-((3S,4S)-3,4-bis(((1S,2R)-2-phenylcyclopropyl)carbamoyl)pyrrolidine-1-carbonyl)phenyl)carbamate]
> 1000	–	CCCCCCNC(=O)CC[C@@H](NC(=O)c1ccc(C(=O)N2C[C@@H](C(=O)N[C@H]3C[C@@H]3c3ccccc3)[C@H](C(=O)N[C@H]3C[C@@H]3c3ccccc3)C2)cc1)C(=O)NCCCCCC [Compound 099, (3S,4S)-1-(4-(((R)-1,5-bis(hexylamino)-1,5-dioxopentan-2-yl)carbamoyl)benzoyl)-N3,N4-bis((1S,2R)-2-phenylcyclopropyl)pyrrolidine-3,4-dicarboxamide]

Structure (SMILES)	EC50 (average of all runs (Table 4)) [nM]	EC50 (average of all runs (Table 3)) [nM]
CCCCCCCCCC(=O)N[C@@H](Cc1nc(-c2ccc(C(=O)N3C[C@@H](C(=O)N[C@H]4C[C@@H]4c4ccccc4)[C@H](C(=O)N[C@H]4C[C@@H]4c4ccccc4)C3)cc2)no1)C(=O)NCCCCCC [Compound 249, (3S,4S)-1-(4-(5-((S)-2-decanamido-3-(hexylamino)-3-oxopropyl)-1,2,4-oxadiazol-3-yl)benzoyl)-N3,N4-bis((1S,2R)-2-phenylcyclopropyl)pyrrolidine-3,4-dicarboxamide]	> 1000	–
